Results reported in PubChem BioAssay AID330 (DTP/NCI, 2004).
Where “and” joins values, the source holds several entries; their conditions need not be identical. Equal entries are not always repeated. Toxic doses and inconclusive results are not listed.

Test system: P388 leukemia ip, CD2F1 mice, survival T/C
Assay: NCI In Vivo Anticancer Drug Screen. Data for tumor model P388 Leukemia (intraperitoneal) in CD2F1 (CDF1) mice
Conditions: endpoint: median survival time, higher = longer survival
Summary of the method: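 Mice carrying the transplanted tumor received test compound or vehicle. Survival was recorded in each group, and the value is the treated-group measurement divided by that of the vehicle-treated control group.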

[1] = dose: 50.0 mg/kg/injection, schedule: Q01DX009 (ip), vehicle: saline with Tween-80
[2] = dose: 100.0 mg/kg/injection, schedule: Q01DX001 (ip), vehicle: saline with Tween-80
[3] = dose: 200.0 mg/kg/injection, schedule: Q01DX001 (ip), vehicle: saline with Tween-80
[4] = dose: 12.5 mg/kg/injection, schedule: Q01DX009 (ip), vehicle: saline
[5] = dose: 25.0 mg/kg/injection, schedule: Q01DX009 (ip), vehicle: saline
[6] = dose: 50.0 mg/kg/injection, schedule: Q01DX009 (ip), vehicle: saline
[7] = dose: 60.0 mg/kg/injection, schedule: Q01DX005 (ip), vehicle: saline with Tween-80
[8] = dose: 120.0 mg/kg/injection, schedule: Q01DX005 (ip), vehicle: saline with Tween-80
[9] = dose: 100.0 mg/kg/injection, schedule: Q01DX009 (ip), vehicle: saline
[10] = dose: 25.0 mg/kg/injection, schedule: Q01DX005 (ip), vehicle: Klucel (hydroxypropylcellulose) (HPC)
[11] = dose: 50.0 mg/kg/injection, schedule: Q01DX005 (ip), vehicle: Klucel (hydroxypropylcellulose) (HPC)
[12] = dose: 100.0 mg/kg/injection, schedule: Q04DX003 (ip), vehicle: saline with Tween-80
[13] = dose: 200.0 mg/kg/injection, schedule: Q04DX003 (ip), vehicle: saline with Tween-80
[14] = dose: 400.0 mg/kg/injection, schedule: Q04DX003 (ip), vehicle: saline with Tween-80
[15] = dose: 100.0 mg/kg/injection, schedule: Q01DX005 (ip), vehicle: Klucel (hydroxypropylcellulose) (HPC)
[16] = dose: 200.0 mg/kg/injection, schedule: Q01DX009 (ip), vehicle: saline

## CCOC(=O)c1c(C)cn[nH]c1=O
[1]
  T/C: 96 % of control
dose: 100.0 mg/kg/injection, schedule: Q01DX009 (ip), vehicle: saline with Tween-80
  T/C: 99 % of control
dose: 200.0 mg/kg/injection, schedule: Q01DX009 (ip), vehicle: saline with Tween-80
  T/C: 95 % of control

## c1ccc(-c2ncc[nH]2)cc1
[2]
  T/C: 98 % of control
[3]
  T/C: 97 % of control

## CCCCCCC[CH2][Sn](=[O])[CH2]CCCCCCC
[4]
  T/C: 100 % of control
[5]
  T/C: 116 % of control
[1]
  T/C: 101 % of control
[6]
  T/C: 100 % of control

## COc1cc2cc(-c3ccccn3)nc(N)c2cc1OC
[7]
  T/C: 100 % of control
[8]
  T/C: 101 % of control

## CC(=O)N(Cc1cnc2nc(N)[nH]c(=O)c2n1)c1ccc(C(=O)NC(CCC(=O)O)C(=O)O)cc1 (configuration not stated)
[5]
  T/C: 90 % of control
[6]
  T/C: 100 % of control
[9]
  T/C: 101 % of control and 104 % of control

## Nc1ccc(N=N/C(=N\Nc2ccccc2[As](=O)(O)O)C(=O)Nc2ccccc2)c(Cl)c1
dose: 6.25 mg/kg/injection, schedule: Q01DX005 (ip), vehicle: Klucel (hydroxypropylcellulose) (HPC)
  T/C: 119 % of control
[10]
  T/C: 117 % of control
[11]
  T/C: 110 % of control and 123 % of control

## O=C(OC1CCC2(CC1)SCCS2)c1ccccc1
[12]
  T/C: 100 % of control
[13]
  T/C: 100 % of control
[14]
  T/C: 104 % of control

## [I][Pt+2][I].[NH-]C(c1ccccc1)C([NH-])c1ccccc1 (configuration not stated)
dose: 12.5 mg/kg/injection, schedule: Q04DX002 (ip), vehicle: saline with Tween-80
  T/C: 102 % of control
dose: 25.0 mg/kg/injection, schedule: Q04DX002 (ip), vehicle: saline with Tween-80
  T/C: 109 % of control and 111 % of control
dose: 50.0 mg/kg/injection, schedule: Q04DX002 (ip), vehicle: saline with Tween-80
  T/C: 115 % of control

## CCC1CN2CCC3(C(=O)Nc4ccccc43)C2CC1/C(=C/OC)C(=O)OC (configuration not stated)
dose: 6.25 mg/kg/injection, schedule: Q01DX009 (ip), vehicle: saline
  T/C: 102 % of control
[4]
  T/C: 100 % of control
[5]
  T/C: 102 % of control
[1]
  T/C: 100 % of control
[6]
  T/C: 103 % of control

## O=c1[nH]cnc2c1cnn2CN1CCOCC1
[10]
  T/C: 106 % of control
[11]
  T/C: 117 % of control and 90 % of control
[15]
  T/C: 120 % of control

## C=CCSc1nc2ccc(N3C(=O)C=CC3=O)cc2s1
dose: 6.25 mg/kg/injection, schedule: Q01DX009 (ip), vehicle: Klucel (hydroxypropylcellulose) (HPC)
  T/C: 111 % of control
dose: 12.5 mg/kg/injection, schedule: Q01DX009 (ip), vehicle: Klucel (hydroxypropylcellulose) (HPC)
  T/C: 104 % of control and 113 % of control
dose: 25.0 mg/kg/injection, schedule: Q01DX009 (ip), vehicle: Klucel (hydroxypropylcellulose) (HPC)
  T/C: 108 % of control and 113 % of control

## CC1=CC(O/C=C2\C(=O)OC3c4ccccc4CC23)OC1=O (configuration not stated)
dose: 50.0 mg/kg/injection, schedule: Q01DX009 (ip), vehicle: suspension in saline
  T/C: 101 % of control
dose: 100.0 mg/kg/injection, schedule: Q01DX009 (ip), vehicle: suspension in saline
  T/C: 108 % of control
dose: 200.0 mg/kg/injection, schedule: Q01DX009 (ip), vehicle: suspension in saline
  T/C: 92 % of control

## O=C1C(Br)=C(Nc2ccccc2)C(=O)C(Br)=C1Nc1ccccc1
[11]
  T/C: 98 % of control
[15]
  T/C: 93 % of control

## CC(C)(C)CC(C)(C)c1ccc(O)cc1O
dose: 12.5 mg/kg/injection, schedule: Q04DX003 (ip), vehicle: saline with Tween-80
  T/C: 110 % of control
dose: 25.0 mg/kg/injection, schedule: Q04DX003 (ip), vehicle: saline with Tween-80
  T/C: 105 % of control
dose: 50.0 mg/kg/injection, schedule: Q04DX003 (ip), vehicle: saline with Tween-80
  T/C: 120 % of control

## COc1ccc(C(N)Cc2ccccc2)cc1 (configuration not stated)
[11]
  T/C: 92 % of control
[15]
  T/C: 100 % of control
dose: 200.0 mg/kg/injection, schedule: Q01DX005 (ip), vehicle: Klucel (hydroxypropylcellulose) (HPC)
  T/C: 102 % of control

## C=CC(=O)NCCCCC(N)C(=O)O (configuration not stated)
[6]
  T/C: 100 % of control
[9]
  T/C: 100 % of control
[16]
  T/C: 97 % of control

## c1cnc2c(c1)-n1cccc1C1(CCCCC1)NN2
[2]
  T/C: 108 % of control
[3]
  T/C: 93 % of control
dose: 400.0 mg/kg/injection, schedule: Q01DX001 (ip), vehicle: saline with Tween-80
  T/C: 93 % of control

## CCCc1c(-n2[nH]c(=O)n(-c3ccccc3)c2=O)c(=O)n(C)c(=O)n1C
dose: 50.0 mg/kg/injection, schedule: Q01DX009 (ip), vehicle: Klucel (hydroxypropylcellulose) (HPC)
  T/C: 110 % of control
dose: 100.0 mg/kg/injection, schedule: Q01DX009 (ip), vehicle: Klucel (hydroxypropylcellulose) (HPC)
  T/C: 105 % of control
dose: 200.0 mg/kg/injection, schedule: Q01DX009 (ip), vehicle: Klucel (hydroxypropylcellulose) (HPC)
  T/C: 95 % of control

## Cn1c(-c2ccccc2)c2c(=O)oc3ccccc3c2c1-c1ccccc1
dose: 25.0 mg/kg/injection, schedule: Q04DX003 (ip), vehicle: Klucel (hydroxypropylcellulose) (HPC)
  T/C: 97 % of control
dose: 50.0 mg/kg/injection, schedule: Q04DX003 (ip), vehicle: Klucel (hydroxypropylcellulose) (HPC)
  T/C: 100 % of control
dose: 100.0 mg/kg/injection, schedule: Q04DX003 (ip), vehicle: Klucel (hydroxypropylcellulose) (HPC)
  T/C: 88 % of control and 94 % of control

## Cc1ncc(C(N)=O)c2c1OC(C)(C)OC2
dose: 50.0 mg/kg/injection, schedule: Q01DX005 (ip), vehicle: saline with Tween-80
  T/C: 100 % of control
dose: 100.0 mg/kg/injection, schedule: Q01DX005 (ip), vehicle: saline with Tween-80
  T/C: 100 % of control
dose: 200.0 mg/kg/injection, schedule: Q01DX005 (ip), vehicle: saline with Tween-80
  T/C: 99 % of control

## C[CH2][Sn](=[O])[CH2]C
[5]
  T/C: 154 % of control

## COC(=O)C(N)C(F)c1ccccc1 (configuration not stated)
dose: 60.0 mg/kg/injection, schedule: Q01DX005 (ip), vehicle: Klucel (hydroxypropylcellulose) (HPC)
  T/C: 107 % of control
dose: 120.0 mg/kg/injection, schedule: Q01DX005 (ip), vehicle: Klucel (hydroxypropylcellulose) (HPC)
  T/C: 100 % of control
dose: 240.0 mg/kg/injection, schedule: Q01DX005 (ip), vehicle: Klucel (hydroxypropylcellulose) (HPC)
  T/C: 98 % of control

## O=C(O)C(=O)O.[Co].[NH-]CCC[NH-].[NH-]CCC[NH-]
dose: 25.0 mg/kg/injection, schedule: Q04DX002 (ip), vehicle: saline
  T/C: 98 % of control

## N#CC1=C(N)CCC1
dose: 6.25 mg/kg/injection, schedule: Q01DX009 (ip), vehicle: saline with Tween-80
  T/C: 100 % of control
dose: 12.5 mg/kg/injection, schedule: Q01DX009 (ip), vehicle: saline with Tween-80
  T/C: 95 % of control

## COC(=O)c1cc2c3c(ccc2[nH]1)N(C(=O)c1cc2c4c(ccc2[nH]1)N(C(=O)c1cc2c5c(ccc2[nH]1)N(C(N)=O)CC5)CC4)CC3
dose: 12.5 mg/kg/injection, schedule: Q01DX005 (ip), vehicle: DMSO
  T/C: 110 % of control
dose: 25.0 mg/kg/injection, schedule: Q01DX005 (ip), vehicle: DMSO
  T/C: 111 % of control
dose: 50.0 mg/kg/injection, schedule: Q01DX005 (ip), vehicle: DMSO
  T/C: 105 % of control
dose: 100.0 mg/kg/injection, schedule: Q01DX005 (ip), vehicle: DMSO
  T/C: 112 % of control

## O=c1c(-c2ccccc2)nnc2sc(-c3cccc(Cl)c3)nn12
dose: 50.0 mg/kg/injection, schedule: Q04DX002 (ip), vehicle: Klucel (hydroxypropylcellulose) (HPC)
  T/C: 98 % of control
dose: 100.0 mg/kg/injection, schedule: Q04DX002 (ip), vehicle: Klucel (hydroxypropylcellulose) (HPC)
  T/C: 93 % of control
dose: 200.0 mg/kg/injection, schedule: Q04DX002 (ip), vehicle: Klucel (hydroxypropylcellulose) (HPC)
  T/C: 90 % of control

## COC(OC)C(=O)OC(C)(C)C
[7]
  T/C: 103 % of control
[8]
  T/C: 100 % of control
dose: 240.0 mg/kg/injection, schedule: Q01DX005 (ip), vehicle: saline with Tween-80
  T/C: 101 % of control

## O=c1[nH]c(CN2CCCCC2)ccc1O
[5]
  T/C: 105 % of control and 109 % of control
[6]
  T/C: 99 % of control and 105 % of control
[9]
  T/C: 106 % of control and 109 % of control
[16]
  T/C: 117 % of control and 118 % of control

## CCOC(=O)C1=C(C)NC(=O)NC1c1ccc(C)cc1 (configuration not stated)
[12]
  T/C: 100 % of control
[13]
  T/C: 95 % of control
[14]
  T/C: 100 % of control

## COc1cccc2c1C(=O)c1c(O)c3c(c(O)c1C2=O)C[C@@](O)(C(=O)CO)C[C@@H]3OC1CC(NC(=O)C(N)CC(C)C)C(O)C(C)O1 (some centres not stated)
dose: 3.12 mg/kg/injection, schedule: Q04DX003 (ip), vehicle: saline
  T/C: 105 % of control
dose: 6.25 mg/kg/injection, schedule: Q04DX003 (ip), vehicle: saline
  T/C: 118 % of control
dose: 25.0 mg/kg/injection, schedule: Q04DX003 (ip), vehicle: saline
  T/C: 150 % of control
